Data set [1] concerns the target T1, GPR84 (Homo sapiens, UniProt Q9NQS5).
T1 construct: expressed in transfected cells
Briefly: GPR84 [35S]GTPγS binding assay. It is filed as biochemical. The settings on record: 3,3′-diindolylmethane at EC80; membranes from stable cell line over expressing GPR84. An outline of the steps: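 Antagonist-mode [35S]GTPγS binding on membranes from a GPR84-overexpressing stable line (GDP-preincubated), stimulated with 3,3′-diindolylmethane at EC80. Buffer 20 mM Tris pH 7.5, 5 mM MgCl2, 250 mM NaCl, saponin; 0.1 nM [35S]GTPγS, 90 min at room temperature, SPA bead read-out.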

Data set [2] concerns human neutrophils. Briefly: Human neutrophil migration assay. It is filed as cell-based. The settings on record: Homo sapiens, Neutrophil; embelin at EC80 as chemotactic agent; 1 h at 37° C.; read-out: Human neutrophil migration IC50. The method, then: The activity of GPR84 agonists and antagonists can therefore be assayed in a human neutrophil migration assay. The human neutrophil migration assay makes use of freshly isolated human neutrophils from buffy coats that are subsequently used in a functional chemotaxis assay setup. […] After 1 h of incubation at 37° C. and 5% CO2, the number of migrated neutrophils in the lower compartment can be quantified by measuring the ATP content using ATPlite™ Luminescence Assay System. A human buffy coat suspension is diluted with an equal volume of ice cold DPBS. 20 mL of the diluted buffy coat suspension is gently mixed with 4 mL of ACD buffer (140 mM citric acid, 200 mM sodium citrate and 220 mM dextrose). Then, 12 mL of a 6% dextran/0.9% NaCl solution (15 g dextran T2000 and 2.25 g NaCl dissolved in 250 mL H2O) is added to the mixture and the samples are inverted gently up to 20 times. The total volume is transferred to a new recipient and incubated at room temperature to allow sedimentation of red blood cells. The yellowish upper fraction is then transferred to a clean centrifugation tube and centrifuged for 12 min at 1300 rpm and 4° C. After centrifugation, the supernatant is discarded and the remaining cell pellet is rapidly resuspended in 12 mL of ice-cold H2O to perform a red blood cell lysis by osmotic burst. After 20 seconds, 4 mL of ice-cold 0.6 M KCl is added to restore salt concentration. Samples are mixed carefully and centrifuged for 6 min at 1300 rpm and 4° C. The supernatant is discarded and the red blood cell lysis procedure is repeated one more time. […] A neutrophil cell suspension of 8.9×10^6 cells per mL is prepared in chemotaxis buffer and 180 μL per well is plated in a 96-well V-bottom plate. 20 μL of test compound solution in chemotaxis buffer is added to the 180 μL cell suspension. The mixture is incubated at room temperature for 30 min with intermediate gentle resuspension of the cells after 15 min. […] After 1 h at 37° C., 5% CO2 in a humidified incubator, the upper plate of the Transwell® system is gently removed. […] After incubation, 270 μL of cell lysate is then transferred onto a white 96-well plate for quantification by a luminescence plate reader. The relative luminescent signal measured is considered linearly related to the number of cells having migrated from the upper compartment into the receiver well.

Data set [3] can be described thus: Chemical stability in aqueous solutions with different pH. It is filed as physicochemical. The settings on record: 2 μM. How it is done:
This in vitro model is aimed at assessing the stability of a test compound in aqueous solutions with different pH. The decrease in parent compound is assessed by measuring the percentage parent remaining after 2 and 24 h incubation at 37° C.
A 2 mM DMSO stock is made for each test compound starting from dry matter. Then a 80 μM working solution of compound in DMSO is made by diluting the 2 mM DMSO.
The 80 μM working solution is diluted to a final concentration of 2 μM-2.5% DMSO in buffer with the desired pH (pH 1.2: hydrochloric acid buffer, pH 5.0: acetate buffer, pH 7.4: phosphate buffer, pH 9.0: Tris buffer) in 96-well plates with glass inserts (Cat no. 548-0201/548-0202, VWR-Thermo Scientific). Two replicates are run for each buffer solution and each time point.
One set of vials is incubated for 24 h at 200 rpm and another for 2 h at 200 rpm. To stop the reaction after the respective incubation times, 4 volumes of acetonitrile containing the internal standard (stop solution) are added to the reaction solution and the vials are vortexed briefly.
For the 0 h incubation, the stop solution with internal standard is first added to the buffer solution in glass vials and then the working solution of test compound (final concentration: 2 μM-2.5% DMSO) is added.
Propranolol is used as internal standard, but if the mass difference is too low with the test compound(s), another product is selected as internal standard. The concentration of the internal standard is chosen to obtain a peak area half of the average peak area of the test compounds and control at time point 0.
Analysis is performed on an LCMS-MS system (API2000 or API4000). The average of the peak areas of the two replicates from the parent compound at time 0 divided by the peak area of the internal standard is considered to be 100% remaining. The percentage remaining after 2 and 24 h of incubation is calculated for all other peaks and the percentage remaining after 2 and 24 h is reported.

T1 sequence (Q9NQS5 whole entry): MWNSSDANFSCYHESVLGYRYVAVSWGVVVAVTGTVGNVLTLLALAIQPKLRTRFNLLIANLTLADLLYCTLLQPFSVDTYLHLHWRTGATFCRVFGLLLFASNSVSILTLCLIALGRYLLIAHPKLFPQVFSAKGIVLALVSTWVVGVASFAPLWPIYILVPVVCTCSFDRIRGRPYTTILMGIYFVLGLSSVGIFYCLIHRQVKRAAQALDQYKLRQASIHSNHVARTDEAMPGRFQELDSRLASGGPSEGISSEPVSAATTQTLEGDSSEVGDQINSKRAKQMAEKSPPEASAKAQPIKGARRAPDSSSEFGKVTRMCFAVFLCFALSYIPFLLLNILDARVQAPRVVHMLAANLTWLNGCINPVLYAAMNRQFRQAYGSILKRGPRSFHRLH

Regarding `COc1cc2c(cc1OC)-c1c(C)c(=O)cc(OC[C@@H]3COCCO3)n1CC2` [Compound 1, 4-[[(2S)-1,4-dioxan-2-yl]methoxy]-9,10-dimethoxy-1-methyl-6,7-dihydrobenzo[a]quinolizin-2-one], the IC50 in data set [1] and in data set [2] was 100 to 500 nM in each case. For the same compound, in data set [3] (pH 1.2 hydrochloric acid buffer, 2 h incubation at 37° C.), the “% rem. (2 h) pH 1.2” value is “*** (>80%)”. Also, in data set [3] (pH 1.2 hydrochloric acid buffer, 24 h incubation at 37° C.), the “% rem. (24 h) pH 1.2” value is listed as “*** (>80%)”. The “% rem. (2 h) pH 5.0” value in data set [3] (pH 5.0 acetate buffer, 2 h incubation at 37° C.) is “*** (>80%)”. The “% rem. (24 h) pH 5.0” value in data set [3] (pH 5.0 acetate buffer, 24 h incubation at 37° C.) is reported as “*** (>80%)”. In addition, in data set [3] (pH 7.4 phosphate buffer, 2 h incubation at 37° C.), the “% rem. (2 h) pH 7.4” value was “*** (>80%)”. Further, in data set [3] (pH 7.4 phosphate buffer, 24 h incubation at 37° C.), the “% rem. (24 h) pH 7.4” value is given as “*** (>80%)”. For the same compound, the “% rem. (2 h) pH 9.0” value in data set [3] (pH 9.0 Tris buffer, 2 h incubation at 37° C.) is “*** (>80%)”. Moreover, the “% rem. (24 h) pH 9.0” value in data set [3] (pH 9.0 Tris buffer, 24 h incubation at 37° C.) is “*** (>80%)”.

Consider `Cc1c2n(c(OC[C@@H]3COCCO3)cc1=O)CCc1cc(N3CCC(F)(F)CC3)ccc1-2` [Compound 65, 9-(4,4-difluoro-1-piperidyl)-4-[[(2S)-1,4-dioxan-2-yl]methoxy]-1-methyl-6,7-dihydrobenzo[a]quinolizin-2-one], for which the IC50 in data set [1] and in data set [2] was 0.01 to 100 nM throughout.

Consider `Cc1c2n(c(OC[C@@H]3COCCO3)cc1=O)CCc1cc(N3CCN(C(=O)C4CC4)CC3)ccc1-2` [Compound 69, 9-[4-(cyclopropanecarbonyl)piperazin-1-yl]-4-[[(2S)-1,4-dioxan-2-yl]methoxy]-1-methyl-6,7-dihydrobenzo[a]quinolizin-2-one], for which the IC50 in data set [1] and in data set [2] was 0.01 to 100 nM in each case.

Turning to `Cc1c2n(c(OC[C@@H]3COCCO3)cc1=O)CCc1cc(NC(=O)C3CC3)ccc1-2` [Compound 70, N-[4-[[(2S)-1,4-dioxan-2-yl]methoxy]-1-methyl-2-oxo-6,7-dihydrobenzo[a]quinolizin-9-yl]cyclopropanecarboxamide], the IC50 in data set [1] and in data set [2] was 0.01 to 100 nM throughout.

Take `COC(=O)N1CC=C(c2ccc3c(c2)CCn2c(OC[C@@H]4COCCO4)cc(=O)c(C)c2-3)CC1` [Compound 76, methyl 4-[4-[[(2S)-1,4-dioxan-2-yl]methoxy]-1-methyl-2-oxo-6,7-dihydrobenzo[a]quinolizin-9-yl]-3,6-dihydro-2H-pyridine-1-carboxylate]: the IC50 in data set [1] and in data set [2] was 0.01 to 100 nM in each case.

For the compound `CCOC(=O)N1CC=C(c2ccc3c(c2)CCn2c(OC[C@@H]4COCCO4)cc(=O)c(C)c2-3)CC1` [Compound 77, ethyl 4-[4-[[(2S)-1,4-dioxan-2-yl]methoxy]-1-methyl-2-oxo-6,7-dihydrobenzo[a]quinolizin-9-yl]-3,6-dihydro-2H-pyridine-1-carboxylate], the IC50 in data set [1] and in data set [2] was 0.01 to 100 nM each time.

Consider `Cc1c2n(c(OC[C@@H]3COCCO3)cc1=O)CCc1cc(C3=CCN(C(=O)OC(C)C)CC3)ccc1-2` [Compound 78, isopropyl 4-[4-[[(2S)-1,4-dioxan-2-yl]methoxy]-1-methyl-2-oxo-6,7-dihydrobenzo[a]quinolizin-9-yl]-3,6-dihydro-2H-pyridine-1-carboxylate], for which the IC50 in data set [1] and in data set [2] was 0.01 to 100 nM each time.

With `Cc1c2n(c(OC[C@@H]3COCCO3)cc1=O)CCc1cc(C3=CCN(C(=O)OCC(F)(F)F)CC3)ccc1-2` [Compound 79, 2,2,2-trifluoroethyl 4-[4-[[(2S)-1,4-dioxan-2-yl]methoxy]-1-methyl-2-oxo-6,7-dihydrobenzo[a]quinolizin-9-yl]-3,6-dihydro-2H-pyridine-1-carboxylate], the IC50 in data set [1] and in data set [2] was 0.01 to 100 nM in each case.

For the compound `COC(=O)N1CCC(c2ccc3c(c2)CCn2c(OC[C@@H]4COCCO4)cc(=O)c(C)c2-3)CC1` [Compound 80, methyl 4-[4-[[(2S)-1,4-dioxan-2-yl]methoxy]-1-methyl-2-oxo-6,7-dihydrobenzo[a]quinolizin-9-yl]piperidine-1-carboxylate], the IC50 in data set [1] and in data set [2] was 0.01 to 100 nM in each case.

For `CCOC(=O)N1CCC(c2ccc3c(c2)CCn2c(OC[C@@H]4COCCO4)cc(=O)c(C)c2-3)CC1` [Compound 81, ethyl 4-[4-[[(2S)-1,4-dioxan-2-yl]methoxy]-1-methyl-2-oxo-6,7-dihydrobenzo[a]quinolizin-9-yl]piperidine-1-carboxylate], the IC50 in data set [1] and in data set [2] was 0.01 to 100 nM each time.

With `Cc1c2n(c(OC[C@@H]3COCCO3)cc1=O)CCc1cc(C3CCN(C(=O)OC(C)C)CC3)ccc1-2` [Compound 82, isopropyl 4-[4-[[(2S)-1,4-dioxan-2-yl]methoxy]-1-methyl-2-oxo-6,7-dihydrobenzo[a]quinolizin-9-yl]piperidine-1-carboxylate], the IC50 in data set [1] and in data set [2] was 0.01 to 100 nM in each case.

With `Cc1c2n(c(OC[C@@H]3COCCO3)cc1=O)CCc1cc(C3CCN(C(=O)OCC(F)(F)F)CC3)ccc1-2` [Compound 83, 2,2,2-trifluoroethyl 4-[4-[[(2S)-1,4-dioxan-2-yl]methoxy]-1-methyl-2-oxo-6,7-dihydrobenzo[a]quinolizin-9-yl]piperidine-1-carboxylate], the IC50 in data set [1] and in data set [2] was 0.01 to 100 nM each time.

In the case of `Cc1c2n(c(OC[C@@H]3COCCO3)cc1=O)CCc1cc(N3CC(F)(F)C3)ccc1-2` [Compound 86, 9-(3,3-difluoroazetidin-1-yl)-4-[[(2S)-1,4-dioxan-2-yl]methoxy]-1-methyl-6,7-dihydrobenzo[a]quinolizin-2-one], the IC50 in data set [1] and in data set [2] was 0.01 to 100 nM throughout.

For `Cc1c2n(c(OC[C@@H]3COCCO3)cc1=O)CCc1cc(N3CC(F)C3)ccc1-2` [Compound 91, 4-[[(2S)-1,4-dioxan-2-yl]methoxy]-9-(3-fluoroazetidin-1-yl)-1-methyl-6,7-dihydrobenzo[a]quinolizin-2-one], the IC50 in data set [1] lay in the range of 0.01 to 100 nM; in data set [2], 100 to 500 nM.

With `Cc1c2n(c(OC[C@@H]3COCCO3)cc1=O)CCc1cc(N3CCC3)ccc1-2` [Compound 93, 9-(azetidin-1-yl)-4-[[(2S)-1,4-dioxan-2-yl]methoxy]-1-methyl-6,7-dihydrobenzo[a]quinolizin-2-one], the IC50 in data set [1] is 0.01 to 100 nM; in data set [2], 100 to 500 nM.

Regarding `Cc1c2n(c(OC[C@@H]3COCCO3)cc1=O)CCc1cc(N3CC(n4cccn4)C3)ccc1-2` [Compound 95, 4-[[(2S)-1,4-dioxan-2-yl]methoxy]-1-methyl-9-(3-pyrazol-1-ylazetidin-1-yl)-6,7-dihydrobenzo[a]quinolizin-2-one], the IC50 in data set [1] lay in the range of 0.01 to 100 nM; in data set [2] it was 100 to 500 nM.
